Data set [1] has as its system Escherichia coli. Briefly: Antibacterial activity against Escherichia coli ATCC BAA-2523 assessed as inhibition of bacterial growth incubated for 18 to 24 hrs by broth microdilution method. The conditions noted are these: time 18-24 hrs. The format is functional.
For data set [2], the system named is Escherichia coli. Briefly: Antibacterial activity against Escherichia coli NCTC 13353 assessed as inhibition of bacterial growth incubated for 18 to 24 hrs by broth microdilution method. Type of data set: functional. The conditions noted are these: time 18-24 hrs.
The test system of data set [3] is Klebsiella pneumoniae. Briefly: Antibacterial activity against carbapenem resistant Klebsiella pneumoniae clinical isolate 19-15 assessed as inhibition of bacterial growth incubated for 18 to 24 hrs by broth microdilution method. The format is functional. The following applies: time 18-24 hrs. A general note: Broth dilution looks for growth in wells or tubes with falling amounts of substance.

Data set [4] concerns Klebsiella pneumoniae. Briefly: Antibacterial activity against KPC producing Klebsiella pneumoniae ATCC BAA-1705 assessed as inhibition of bacterial growth incubated for 18 to 24 hrs by broth microdilution method. The format is functional. The conditions noted are these: time 18-24 hrs.
In data set [5] the test system is Pseudomonas aeruginosa. Description: Antibacterial activity against Pseudomonas aeruginosa clinical isolate 19-1 assessed as inhibition of bacterial growth incubated for 18 to 24 hrs by broth microdilution method. Type of data set: functional. The following applies: time 18-24 hrs.
For data set [6], the system named is Pseudomonas aeruginosa. Briefly: Antibacterial activity against Pseudomonas aeruginosa ATCC 27853 assessed as inhibition of bacterial growth incubated for 18 to 24 hrs by broth microdilution method. The following applies: time 18-24 hrs. The format is functional.
In data set [7] the test system is Acinetobacter baumannii. Briefly: Antibacterial activity against carbapenem resistant Acinetobacter baumannii clinical isolate 19-8 assessed as inhibition of bacterial growth incubated for 18 to 24 hrs by broth microdilution method. Type of data set: functional. The following applies: time 18-24 hrs.
The test system of data set [8] is Acinetobacter baumannii. Briefly: Antibacterial activity against oxacillinase-27 producing Acinetobacter baumannii NCTC 13304 assessed as inhibition of bacterial growth incubated for 18 to 24 hrs by broth microdilution method. Type of data set: functional. The following applies: time 18-24 hrs.
For data set [9], the system named is Escherichia coli. Description: Bactericidal activity against Escherichia coli ATCC BAA-2523 assessed as log reduction in bacterial count by measuring reduction in CFU/ml at 4 times MIC measured after 24 hrs by time-kill assay. The format is functional.
The test system of data set [10] is Escherichia coli. Briefly: Bactericidal activity against Escherichia coli ATCC BAA-2523 assessed as bacterial count at 8 times MIC measured after 24 hrs by time-kill assay. Type of data set: functional, organism-based.
Data set [11] in a line: Acute toxicity in ICR mouse administered into tail vein and measured twice daily over 1 week. The following applies: in vivo, route iv, time 1 weeks.
Data set [12] deals with Escherichia coli. Briefly: Antibacterial activity against Escherichia coli ATCC BAA-2523 infected in ICR mouse assessed as mouse survival at 2 mg/kg, iv administered into tail vein and measured daily for 7 days relative to control. The conditions noted are these: ATCC BAA-2523, 168 h, time 7 day. The format is functional.
The test system of data set [13] is Escherichia coli. Description: Potentiation of rifampicin induced antibacterial activity in Escherichia coli ATCC 25922 assessed as rifampicin MIC at 0.5 ug/ml incubated for 18 to 24 hrs by broth microdilution method (reference value: 2 ug/ml). The following applies: dose 0.5 µg/ml, time 18-24 hrs. The format is functional.
Data set [14] concerns Escherichia coli. Description: Potentiation of rifampicin induced antibacterial activity in Escherichia coli ATCC 25922 assessed as rifampicin MIC at 1 ug/ml incubated for 18 to 24 hrs by broth microdilution method (reference value: 2 ug/ml). Type of data set: functional. The following applies: dose 1 µg/ml, time 18-24 hrs.

The MIC is the smallest concentration in the dilution series that meets the test's criterion for growth inhibition. What is called LD50 is the dose at which mortality reaches 50%.

≈ marks a conversion by molar mass, not a printed value. Some results are limits rather than exact numbers.

Take `CCCCCCC[C@@H](O)CC(=O)N[C@H](CCN)C(=O)N[C@H]1CCNC(=O)[C@H]([C@@H](C)O)NC(=O)[C@H](CCN)NC(=O)[C@H](CCN)NC(=O)[C@H]([C@@H](C)O)NC(=O)[C@@H](Cc2ccccc2)NC(=O)[C@H](CCN)NC1=O`: the minimal inhibitory concentration (MIC) in data set [1] stood at 0.5 µg/mL (≈ 0.49 µM); in data set [2], 2 µg/mL (≈ 1.96 µM); in [3] it was 4 µg/mL (≈ 3.92 µM); in [4], 1 µg/mL (≈ 0.98 µM); in data set [5] it was 0.5 µg/mL (≈ 0.49 µM); in [6], 0.25 µg/mL (≈ 0.245 µM). Besides, the minimum inhibitory concentration (MIC) in [7] was 32 µg/mL (≈ 31.4 µM); in data set [8] it was 8 µg/mL (≈ 7.84 µM); in data set [13] it was at most 0.06 µg/mL; in data set [14], at most 0.06 µg/mL. The “log(activity)” value in [9] was determined as 0.6. For the same molecule, the Activity result in data set [10] is reported as “Below limit of detection”. This molecule displayed a median lethal dose (LD50) at 168 h in [11] of 12.4 mg/kg. Moreover, in data set [12], the survival at 2 mg/kg came out at 62.5%.
